From patent US7335770B2, “Triazine compounds and their analogs, compositions, and methods” (Reddy U5 Therapeutics, Inc., priority 2004, dated 2008)
Where a name gives a salt, the structure may show the parent alone. Read-outs that look alike come from different tables or passages of the source.

Test system: smooth muscle cells (SMC)
Experiment: anti-proliferation assay (perlecan)
Assay type: cell-based
Details: for activity in anti-proliferation assay (Perlecan), in words: using the same activity scale used in Table 3
Description: The activity scale used in Table 3 as follows (numbers are inclusive): “+++” represents IC50 of less than about 3 μM; “++” represents IC50 of between about 3 and about 7 μM; and “+” represents IC50 of greater than about 7 μM. In addition, compounds, to include compositions thereof, encompassed within the scope of structures Ia-XXIVa, respectively, or listed in Tables 1A and 1E may be likewise employed in this embodiment and/or aspect of the present invention. Further, any hydrogen atoms that are required for any atom to attain its usual valence in a structure presented in Table 3, whether a carbon atom or a heteroatom, should be inferred if it is not specifically indicated.
In addition to the above compounds, the following compounds and compositions comprising these compounds are active in an anti-proliferation assay (Perlecan). These compounds and compositions comprising these compounds are, among other things, generally useful for treating cardiovascular disorders associated with proliferative activity. Specifically, these compounds include N^2-cycloheptyl-N^4-(3-fluoro-4-methoxyphenyl)-N^6-methyl-N^6-(1-methyl-piperidin-4-yl)-1,3,5-triazine-2,4,6-triamine, and N^2-cycloheptyl-N^4-methyl-N^4-(1-methyl-piperidin-4-yl)-N^6-naphthalen-2-yl-1,3,5-triazine-2,4,6-triamine.
Methods for identifying the activity and screening for one or more of these compounds or molecules that induce synthesis of proteoglycans such as HSPG (heparan sulfate proteoglycan) are taught in U.S. patent application Ser. No. 10/091,357, which is incorporated herein in its entirety. Assays of effects of compounds in vivo are also taught in the incorporated references and are known to those skilled in the art. In general, methods comprise the addition of such compounds to assays and measurement of HSPG synthesis including, but not limited to, the production of syndecans, glypicans and perlecans, for example, syndecans 1, 2 and 4; and glypican-1. Other assays that can be used to determine the activity of the compounds of the present invention include other methods for measuring the induction of perlecan synthesis. For example, in one assay, perlecan is induced in cells by certain inducers, and the response is measured. Compounds of the present invention are then added to a replicate assay and the effect on perlecan induction is determined. Using such methods, compounds are determined that can either inhibit perlecan, elevate induction of perlecan, or that have no effect at all. Those compounds that are effective as therapeutic agents can then be used in animals, humans or patients with cellular proliferation disease aspects, such as vascular-associated diseases or SMC proliferation pathologies.
Another assay for determining compounds having SMC effects comprises adding a composition suspected of affecting SMC proliferation to smooth muscle cells in growth medium or serum-free medium. The change in cell proliferation can be measured by methods known to those skilled in the art, such as incorporation of labeled nucleotides into dividing cells' DNA, and compared to the proliferation of cells which are not treated with the compound. Other measurements include directly determining levels of HSPG synthesis by measuring the amount or change in amount of HSPG such as with ELISA for HSPGs, and compared to the amount of HSPG synthesis in untreated cells. Other indirect or direct measurement are contemplated by the present invention and are known to those skilled in the art. For example, such methods include, but are not limited to, measurement of RNA levels, RT-PCR, Northern blotting, Western blotting promoter-based assays to identify compounds that affect one or more proteoglycans and assays for proteoglycan biological activity shown by recombinant proteins, partially purified proteins, or lysates from cells expressing proteoglycans in the presence or absence of compounds of interest.

[1] = anti-proliferation assay (perlecan), class of IC50, read-out: Activity (note 1)
[2] = anti-proliferation assay (perlecan), some cells print no unit, read-out: Avg IC-50

Structure (SMILES)	activity in anti-proliferation assay (Perlecan), in words	further results
CCN1CCCC1CNc1nc(Nc2ccc(C)c(F)c2)nc(NC2CCCCCC2)n1 (stereo not shown) [drawing 591, N-Cycloheptyl-N′-(1-ethyl-pyr-rolidin-2-ylmethyl)-N″-(3-fluoro--4-methyl-phenyl)-[1,3,5]tri-azine-2,4,6-triamine]	–	IC50 [1]: < 3000 nM; IC50 [2]: 2780 nM
CN1CCC(N(C)c2nc(Nc3cccc(F)c3)nc(NC3CCCCCC3)n2)CC1 [drawing 598, N-Cycloheptyl-N′-(3-fluoro-phe-nyl)-N″-methyl-N″-(1-methyl-piper-idin-4-yl)-[1,3,5]triazine-2,4,6-tri-amine]	–	IC50 [1]: < 3000 nM; IC50 [2]: 1230 nM
CCc1occc(=O)c1Oc1nc(Nc2ccc(OC)c(Cl)c2)nc(NC2CCCCCC2)n1 [3-[4-(3-Chloro-4-methoxy-phenylamino)-6-cycloheptylamino-[1,3,5]triazin-2-yloxy]-2-ethyl-pyran-4-one]	high activity	–
CCN1CCCC1CNc1nc(Nc2ccc(OC)c(F)c2)nc(N2CCN(CC(=O)N3CCCC3)CC2)n1 (stereo not shown) [drawing 600, 2-{4-[4-[(1-Ethyl-pyrrolidin-2-yl-methyl)-amino]-6-(3-fluoro-4-meth-oxy-phenylamino)-[1,3,5tri-azin-2-yl]-piperazin-1-yl}-1-pyr-rolidin-1-yl-ethanonedihydrogen chloride salt]	–	inhibition at 20 µM (read-out: inhibition at 20 μM (printed in the Avg IC-50 column)): 42%
COc1ccc(Nc2nc(NC3CCCCCC3)nc(Sc3ccccc3OC)n2)cc1Cl [N-(3-Chloro-4-methoxy-phenyl)-N′-cycloheptyl-6-(2-methoxy-phenylsulfanyl)-[1,3,5]triazine-2,4-diamine]	high activity	–
CCN1CCCC1CNc1nc(Cl)nc(Nc2ccc(OC)c(F)c2)n1 (stereo not shown) [6-Chloro-N-(1-ethyl-pyrrolidin-2-yl-methyl)-N′-(3-fluoro-4-meth-oxy-phenyl)-[1,3,5]triazine-2,4-di-amine]	–	IC50 [1]: 3000 to 7000 nM; IC50 [2]: 6500 nM
CN1CCC(N(C)c2nc(Nc3cccc(F)c3)nc(NC3CCCCCC3)n2)CC1 [N-Cycloheptyl-N′-(3-fluoro-phenyl)-N″-methyl-N″-(1-methyl-piperidin-4-yl)-[1,3,5]triazine-2,4,6-triamine]	high activity	–
COc1ccc(Nc2nc(NC3CCCCCC3)nc(Oc3ccccc3C#CC(C)(C)O)n2)cc1Cl [4-{2-[4-(3-Chloro-4-methoxy-phenylamino)-6-cycloheptylamino-[1,3,5]triazin-2-yloxy]-phenyl}-2-methyl-but-3-yn-2-ol]	high activity	–
COc1ccc(Nc2nc(NC3CCCCCC3)nc(Sc3ccccc3)n2)cc1Cl [N-(3-Chloro-4-methoxy-phenyl)-N′-cycloheptyl-6-phenylsulfanyl-[1,3,5]triazine-2,4-diamine]	high activity	–
COc1ccc(Nc2nc(NC3CCCCCC3)nc(OCC3CCCO3)n2)cc1Cl (stereo not shown) [N-(3-Chloro-4-methoxy-phenyl)-N′-cycloheptyl-6-(tetrahydro-furan-2-ylmethoxy)-[1,3,5]triazine-2,4-diamine]	high activity	–
COc1ccc(Nc2nc(NC3CCCCCC3)nc(Sc3ccccc3C(C)(C)C)n2)cc1Cl [6-(2-tert-Butyl-phenylsulfanyl)-N-(3-chloro-4-methoxy-phenyl)-N′-cycloheptyl-[1,3,5]triazine-2,4-diamine]	high activity	–
COc1ccc(Nc2nc(NC3CCCCCC3)nc(NC3CCN(C(=O)CCCCC4SCC5NC(=O)NC54)CC3)n2)cc1Cl (stereo not shown) [drawing 595]	–	IC50 (read-out: Activity (note 1)): < 3000 nM; IC50 (read-out: Avg IC-50): 710 nM
COc1ccc(Nc2nc(NC3CCCCCC3)nc(Oc3ccc(/C=N\O)cc3)n2)cc1Cl [drawing 583, 4-[4-(3-Chloro-4-methoxy-phenyl-amino)-6-cyclo-heptylamino-[1,3,5]triazin-2-yl-oxy]-benzaldehyde oxime]	–	IC50 [1]: < 3000 nM; IC50 [2]: 720 nM
COc1ccc(Nc2nc(NC3CCCCCC3)nc(NC3CCNCC3)n2)cc1Cl [N-(3-Chloro-4-methoxy-phenyl)-N′-cycloheptyl-N″-piperidin-4-yl-[1,3,5]triazine-2,4,6-triamine]	high activity	–
COc1ccc(Nc2nc(NC3CCCCCC3)nc(Oc3ccc(C#CC(C)(C)O)cc3)n2)cc1Cl [4-{4-[4-(3-Chloro-4-methoxy-phenylamino)-6-cycloheptylamino-[1,3,5]triazin-2-yloxy]-phenyl}-2-methyl-but-3-yn-2-ol]	high activity	–
COc1ccc(Nc2nc(NC3CCCCCC3)nc(OC(C)C)n2)cc1Cl [N-(3-Chloro-4-methoxy-phenyl)-N′-cycloheptyl-6-isopropoxy-[1,3,5]triazine-2,4-diamine]	high activity	–
COc1ccc(Nc2nc(NC3CCCCCC3)nc(OC3CCCN(C(C)=O)C3)n2)cc1Cl (stereo not shown) [1-{3-[4-(3-Chloro-4-methoxy-phenylamino)-6-cycloheptylamino-[1,3,5]triazin-2-yloxy]-piperidin-1-yl}-ethanone]	high activity	–
CCOc1nc(Nc2ccc(OC)c(F)c2)nc(NC2CCCCCC2)n1 [drawing 601, N-Cycloheptyl-6-ethoxy-N′-(3-fluoro--4-methoxy-phenyl)-[1,3,5]tri-azine-2,4-diamine]	–	IC50 [1]: 3000 to 7000 nM; IC50 [2]: 4500 nM
COc1ccc(Nc2nc(NCCNC(=O)CCCCC3SCC4NC(=O)NC43)nc(NC3CCCCCC3)n2)cc1Cl (stereo not shown) [drawing 597, of 5-(2-Oxo-hexahydro-thi-eno[3,4-d]imidazol-4-yl)-pen-tanoic acid {2,-[4-(3-chloro-4-meth-oxy-phenylamino)-6-cyclo-heptylamino-[1,3,5]triazin-2-yl-amino]-ethyl}-amide]	–	IC50 [1]: 3000 to 7000 nM; IC50 [2]: 3200 nM
COc1ccc(Nc2nc(NC3CCCCCC3)nc(Sc3c(Cl)cccc3Cl)n2)cc1Cl [N-(3-Chloro-4-methoxy-phenyl)-N′-cycloheptyl-6-(2,6-dichloro-phenylsulfanyl)-[1,3,5]triazine-2,4-diamine]	high activity	–
COc1ccc(Nc2nc(NC3CCCCCC3)nc(Oc3ccc(I)cc3)n2)cc1Cl [N-(3-Chloro-4-methoxy-phenyl)-N′-cycloheptyl-6-(4-iodo-phenoxy)-[1,3,5]triazine-2,4-diamine]	high activity	–
COc1ccc(Nc2nc(NC3CCCCCC3)nc(OCCOc3ccccc3F)n2)cc1Cl [N-(3-Chloro-4-methoxy-phenyl)-N′-cycloheptyl-6-[2-(2-fluoro-phenoxy)-ethoxy]-[1,3,5]triazine-2,4-diamine]	high activity	–
COc1ccc(Nc2nc(NC3CCCCCC3)nc(-c3ccc(O)cc3O)n2)cc1Cl [4-[4-(3-Chloro-4-methoxy-phenylamino)-6-cycloheptylamino-[1,3,5]triazin-2-yl]-benzene-1,3-diol]	high activity	–
COc1ccc(Nc2nc(NCCCCCNC(=O)CCCCC3SCC4NC(=O)NC43)nc(NC3CCCCCC3)n2)cc1Cl (stereo not shown) [5-(2-Oxo-hexahydro-thieno[3,4-d]imidazol-4-yl)-pentanoic acid {5-[4-(3-chloro-4-methoxy-phenylamino)-6-cycloheptylamino-[1,3,5]triazin-2-ylamino]-pentyl}-amide]	high activity	–
